According to ChEMBL document CHEMBL1155360, “Structural characteristics of flavanones and flavones from Cudrania tricuspidata for neuraminidase inhibition” (Bioorg Med Chem Lett, 2009):

Assays:
[1] = Noncompetitive inhibition of Clostridium welchii neuraminidase by Dixon plot; parameters: species or system Clostridium perfringens
[2] = (§1) Inhibition of Clostridium welchii neuraminidase; parameters: species or system Clostridium perfringens
Clostridium perfringens = assay: as §1

For `O=c1cc(-c2ccc(O)cc2O)oc2cc(O)cc(O)c12` [NORARTOCARPETIN], the Ki [1] was 1.96 µM, the IC50 [2] was 1.13 µM and the inhibition (Clostridium perfringens) was “Dose-dependent effect”.
For `O=C1C[C@@H](c2ccc(O)cc2O)Oc2cc(O)cc(O)c21`, the Ki [1] was 7.2 µM, the IC50 [2] was 8.14 µM and the inhibition (Clostridium perfringens) was “Dose-dependent effect”.
For `O=C1C[C@@H](c2ccc(O)c(O)c2)Oc2cc(O)cc(O)c21` [ERIODICTYOL], the IC50 [2] was 16 µM and the inhibition (Clostridium perfringens) was “Dose-dependent effect”.
For `CC1(C)C=Cc2c(cc3oc(-c4ccc(O)cc4O)cc(=O)c3c2O)O1`, the IC50 [2] was 6.01 µM and the inhibition (Clostridium perfringens) was “Dose-dependent effect”.
In the case of `CC(C)=CCc1c(O)cc2c(c1O)C(=O)C[C@@H](c1cc3c(cc1O)OC(C)(C)C=C3)O2` [CUDRAFLAVANONE A], the Ki [1] is reported as 2.01 µM, the IC50 [2] is reported as 1.53 µM and the inhibition (Clostridium perfringens) is reported as “Dose-dependent effect”.
With `CC(C)=CCc1c(-c2ccc(O)cc2O)oc2cc3c(c(O)c2c1=O)C=CC(C)(C)O3` [CUDRAFLAVONE B] the Ki [1] was 10.8 µM, the IC50 [2] was 10.1 µM and the inhibition (Clostridium perfringens) was “Dose-dependent effect”.
For `O=C1C[C@@H](c2ccc(O)cc2)Oc2cc(O)cc(O)c21` [NARINGENIN], the IC50 [2] was 57.9 µM and the inhibition (Clostridium perfringens) was “Dose-dependent effect”.
For `CC(C)=CCc1cc([C@@H]2CC(=O)c3c(cc(O)c(CC=C(C)C)c3O)O2)c(O)cc1O`, the Ki [1] was 7.16 µM, the IC50 [2] was 10.7 µM and the inhibition (Clostridium perfringens) was “Dose-dependent effect”.
In the case of `O=c1c2cc(O)c(O)cc2oc2cc(O)c([C@@H]3O[C@H](CO)[C@@H](O)[C@H](O)[C@H]3O)c(O)c12` [MANGIFERIN], the IC50 [2] is reported as 11.2 µM and the inhibition (Clostridium perfringens) is reported as “Dose-dependent effect”.
For `O=c1cc(-c2ccc(O)c(O)c2)oc2cc(O)cc(O)c12` [LUTEOLIN], the IC50 [2] was 4.6 µM and the inhibition (Clostridium perfringens) was “Dose-dependent effect”.
In the case of `CC(C)=CC1Oc2cc(O)ccc2-c2oc3cc4c(c(O)c3c(=O)c21)C=CC(C)(C)O4` (stereo not drawn) [CUDRAFLAVONE A], the Ki [1] is reported as 44.4 µM, the IC50 [2] is reported as 29 µM and the inhibition (Clostridium perfringens) is reported as “Dose-dependent effect”.
With `O=c1cc(-c2ccc(O)cc2)oc2cc(O)cc(O)c12` [APIGENIN] the IC50 [2] was 22.1 µM and the inhibition (Clostridium perfringens) was “Dose-dependent effect”.
In the case of `CC(C)(O)CCc1c(O)cc(O)c2c1O[C@H](c1cc3c(cc1O)OC(C)(C)C=C3)CC2=O`, the Ki [1] is reported as 0.19 µM, the IC50 [2] is reported as 0.38 µM and the inhibition (Clostridium perfringens) is reported as “Dose-dependent effect”.
